The values below come from patent US20100273203A1 (priority 2009, published 2010).

The IC50 is the concentration at which inhibition is half-maximal. In general, Ki refers to a measure of affinity in units of concentration, obtained from inhibition or displacement. The low end stands for a stronger hold on the target, the high end for a looser hold on the target. Usually Km stands for the concentration of substrate that gives half-maximal velocity.

One data set has as its target CYP2C9 (Homo sapiens, UniProt P11712). The settings on record: read-out: IC50 toward recombinant CYP2C9 activity; P450-Glo, 50 μM Luciferin H; racemic compounds. How it is done: Hydroxywarfarins were screened for inhibitory potential toward recombinant CYP2C9 using the Promega (Madison, Wis.) CY2C9 P450-Glo™ Assay using the manufacturer's protocol. These IC50 studies were analyzed on a PerkinElmer Victor^3V™ 1420 Multilabel Counter. Recombinant CYP2C9, 50 nM, was incubated with 50 μM Luciferin H, and six concentrations of each hydroxywarfarin from approximately 10 nM to 4 mM final concentration, as optimized for each compound. The appropriate volume of hydroxywarfarin stocks in 100% ethanol were added to each well prior to addition of the substrate and enzyme, and the ethanol was allowed to evaporate at room temperature to minimize solvent effects on CYP2C9 activity. A final DMSO concentration of 1% was present in the reactions due to the P450-Glo Luciferin H. The reaction was initiated upon addition of an NADPH regenerating solution (BD Biosciences) and quenched with a luciferase quench (Promega) at 30 min.

The target of data set [1] is CYP2C9 present in the human liver microsomes (Homo sapiens, UniProt P11712). The settings on record: for Ki / Mechanism of inhibition: S-warfarin metabolism, 7-hydroxywarfarin formation as marker. As for the experimental part: (§1) For each hydroxywarfarin, at least 4 independent experimental replicates were performed.
CYP2C9 present in the human liver microsomes, sequence (P11712 whole entry): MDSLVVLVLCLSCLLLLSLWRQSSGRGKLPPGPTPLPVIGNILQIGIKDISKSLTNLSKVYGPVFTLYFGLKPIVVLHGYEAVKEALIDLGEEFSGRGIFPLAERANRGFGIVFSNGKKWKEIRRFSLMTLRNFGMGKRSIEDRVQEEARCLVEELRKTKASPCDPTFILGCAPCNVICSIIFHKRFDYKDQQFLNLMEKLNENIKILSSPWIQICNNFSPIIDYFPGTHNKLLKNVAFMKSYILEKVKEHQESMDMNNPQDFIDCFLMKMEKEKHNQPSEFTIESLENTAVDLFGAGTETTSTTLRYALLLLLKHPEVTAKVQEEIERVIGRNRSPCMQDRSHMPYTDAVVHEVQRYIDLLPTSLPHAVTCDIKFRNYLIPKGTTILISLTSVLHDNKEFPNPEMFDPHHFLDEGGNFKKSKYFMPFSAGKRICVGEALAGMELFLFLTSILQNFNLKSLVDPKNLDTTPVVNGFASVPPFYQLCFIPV
(§2) MS/MS experimental conditions was used as described previously (6).
(§3) The most probable inhibition mechanism for recombinant CYP2C9 and human liver microsome reactions was identified using DynaFit ver. 3.28 (Biokin, Ltd) (20). Data from each set of hydroxywarfarin experiments were fit to traditional reversible inhibition mechanisms (competitive, uncompetitive, noncompetitive, or mixed). The respective kinetic parameters (Ki and Ki′) were set as variables, while the kinetic parameters (Vmax and Km) were constants based on values obtained from uninhibited reactions. The most probable mechanism was then identified using the Akaike Information Criterion (AICc) for model discrimination (21).

For data set [2], the target named is T1, CYP2C9*1 (Homo sapiens, UniProt P11712). Conditions: for Ki / Mechanism of inhibition: S-warfarin metabolism, 7-hydroxywarfarin formation as marker. How it is done:
as §1, §2, §3

The nature of data set [3]: LC-MS/MS urinary metabolic profile of patients receiving warfarin. The settings on record: for share of (S)-WAR P450 metabolites measured: three urine specimens; for % R / % S (proportion in (S)-enantiomeric form) / % conjugated (proportion glucuronidated) / urinary concentration: urine; for urinary concentration: free and conjugated. The text has this: All chemicals used in this study were of at least reagent grade. Unless otherwise specified, all chemicals and reagents were purchased from either Sigma-Aldrich (St. Louis, Mo.) or Thermo Fisher Scientific (Waltham, Mass.). […] Ethyl alcohol (100%) was purchased from AAPER (Shelbyville, Ky.). Re-combinant CYP2C9*1, CYP3A4, CYP1A2, and CYP2C19 were expressed in baculovirus-infected insect cells and purchased from BD Biosciences (San Jose, Calif.). Commercially available urine specimens from three females (F84, F85, and F87) were provided by the Emergency Response and Air Toxicants Branch, Division of Laboratory Science National Center for Environmental Health Centers for Disease Control and Prevention (DeKalb County, Ga.). Patient studies were conducted under IRB-approved protocols, and all patients signed informed consent documentation.
This analytical phase was accomplished by reverse-phase HPLC using a 4.6 mm×150 mm C18 Zorbax Eclipse 5 μm XDB-C18 column provided by Agilent (Santa Clara, Calif.). The operating temperature was 40° C., and the sample injection volume was 5.0 μL. HPLC mobile phases consisted H2O (0.1% acetic acid v/v) (A) and methanol (0.1% acetic acid v/v) (B). The flow rate was 1 mL/min. […] The total run time per sample was 10 min. Specific MS/MS experimental conditions used in this study are noted in Table 1.
To determine the relative abundance of the (R)-and (S)-enantiomers of each metabolite, a 4.6 mm×25 cm Chirobiotic V5 μm column supplied by Supelco (Bellefonte, Pa.) was incorporated during the second analytical phase. Mobile phases consisted of H2O (0.1% acetic acid v/v) (A) and acetonitrile (0.1% acetic acid v/v) (B) with a flow rate of 800 μL/min. Enantiomeric separations were accomplished under isocratic conditions (80% A and 20% B). The sample injection volume was 15.0 μL. Enantiomeric MS/MS analyses were performed in negative ion mode by electrospray ionization (ESI) using a Turbo IonSpray source. A total run time of 20 min was required for adequate resolution. Specific MS/MS experimental conditions used in this study are noted in the Table 2.
Each response was normalized to that of the internal standard, 7-hydroxycoumarin (10 μM). […] Measurements of these three metabolites were calculated by taking the difference of the amount measured in the first analytical phase, which contained both (R)-and (S) isomers from the amount of the (S)-isomer measured in the second analytical phase (eq 3). Glucuronidated metabolites were measured by incubating 250 μL of urine with 2000 units of GUS in 100 mM sodium acetate buffer, pH 5.0. The final volume for each of these reactions was 1 mL. Control reactions omitting GUS were included with each sample set. Reactions were incubated overnight at 37° C., after which they were stored at −80° C. Immediately before analysis, both samples were diluted with an equal volume of ethanol containing 7-hydroxycoumarin (10 μM final concentration). The difference between GUS-treated samples and controls represented the amount of glucuronidated metabolites present.

Data set [4] can be described thus: Estimated unbound levels in plasma of long-term warfarin therapy patients. Conditions: estimated from literature data.
The target of data set [5] is T1, CYP2C9*1. The settings on record: read-out: IC50 for CYP marker reaction; P450-Glo marker reaction.
Data set [6] has as its target T2, CYP3A4 (Homo sapiens, UniProt P08684). The experiment in a line: Steady-state metabolism of R- and S-warfarin by recombinant CYP3A4.
Protocol: (§4) Reactions were initiated upon addition of an NADPH regenerating system [2 μU μL-1 glucose 6-phosphate dehydrogenase, 10 mM glucose 6-phosphate, 2 mM MgCl2, 1 mM NADP^+]. […] The quenched reactions were centrifuged and the resulting supernatant containing substrate and products resolved and quantified by UPLC-MS/MS. Each experiment was performed in at least 4 independent experimental replicates.
(§5) The flow rate was constant at 250 μL/min. […] Electrospray conditions were as follows: spray voltage of 4500 V, sheath gas pressure 45, auxiliary gas pressure 20, and collision energy of 15-15 eV (compound specific).
(§6) Final metabolite concentrations were calculated from the ratio of metabolite area to internal standard area in the sample and compared to calibration curves as determined from the UPLC-MS/MS method. All compounds were quantified relative to authentic standards. The resulting kinetic data were analyzed with GraphPad Prism 5® software. Non-linear regression analysis was used to fit steady-state data to the Michaelis-Menten equation to determine the Vmax and Km parameters.
Another data set has as its target CYP3A7 (Homo sapiens, UniProt P24462). The experiment in a line: Steady-state metabolism of R- and S-warfarin by recombinant CYP3A7.
In the next data set the target is UGT1A10 (Homo sapiens, UniProt Q9HAW8). Conditions: glucuronidation; racemic OHWars. The text has this: The characterization of hepatic and extrahepatic glucuronidation may be made based on glucuronidation studies with 100 commercially available HLM and 100 intestinal microsomal preparations available in our laboratory. […] Both racemic mixtures and separated R and S enantiomers may be assayed. […] Activities of extrahepatic (UGT1A8 and UGT1A10) and hepatic (UGT1A1, UGT1A3, and UGT1A9) isoforms may be compared to that of their respective microsomal preparations, and assign the contribution of specific UGTs to product formation by the human samples.
UGT1A10, sequence (Q9HAW8 26-530): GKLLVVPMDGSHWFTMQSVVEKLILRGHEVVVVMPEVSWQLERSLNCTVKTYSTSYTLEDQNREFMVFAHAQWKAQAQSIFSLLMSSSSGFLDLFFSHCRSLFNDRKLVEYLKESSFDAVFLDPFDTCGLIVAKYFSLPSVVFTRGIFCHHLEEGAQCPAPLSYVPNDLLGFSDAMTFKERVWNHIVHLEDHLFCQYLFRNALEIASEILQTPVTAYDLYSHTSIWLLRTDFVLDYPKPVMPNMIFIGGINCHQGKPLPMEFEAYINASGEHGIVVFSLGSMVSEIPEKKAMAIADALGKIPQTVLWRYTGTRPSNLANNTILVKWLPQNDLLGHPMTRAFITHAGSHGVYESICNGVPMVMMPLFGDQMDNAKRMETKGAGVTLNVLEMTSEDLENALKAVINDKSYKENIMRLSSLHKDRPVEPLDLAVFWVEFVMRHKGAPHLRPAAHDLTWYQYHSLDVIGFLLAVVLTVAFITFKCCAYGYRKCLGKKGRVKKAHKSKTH

In data set [7] the target is T2, CYP3A4. The settings on record: read-out: IC50 for CYP marker reaction; P450-Glo marker reaction.
A further data set deals with plasma proteins. The settings on record: cited from earlier work.
A further data set concerns the target T3, CYP1A2 (Homo sapiens, UniProt P05177).
T3 sequence (P05177 1-516): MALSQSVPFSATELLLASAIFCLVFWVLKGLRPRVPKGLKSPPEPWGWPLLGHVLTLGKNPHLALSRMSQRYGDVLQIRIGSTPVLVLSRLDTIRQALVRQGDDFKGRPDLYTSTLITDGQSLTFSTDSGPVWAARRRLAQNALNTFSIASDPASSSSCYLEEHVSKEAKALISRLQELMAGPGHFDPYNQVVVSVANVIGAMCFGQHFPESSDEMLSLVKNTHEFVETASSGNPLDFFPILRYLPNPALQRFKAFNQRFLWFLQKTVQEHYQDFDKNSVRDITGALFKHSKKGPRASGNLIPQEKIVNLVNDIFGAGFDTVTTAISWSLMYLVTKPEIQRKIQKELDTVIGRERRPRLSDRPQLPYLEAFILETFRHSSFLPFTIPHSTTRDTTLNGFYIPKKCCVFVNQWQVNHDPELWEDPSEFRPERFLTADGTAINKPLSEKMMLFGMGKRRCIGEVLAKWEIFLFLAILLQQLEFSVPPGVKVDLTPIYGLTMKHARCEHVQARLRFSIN
The settings on record: read-out: IC50 for CYP marker reaction; P450-Glo marker reaction.

Setting [8] is: 10-hydroxywarfarin formation, 37° C, pH 7.4.

Like-named read-outs stand apart in the source and are kept apart here.

T2 sequence (P08684 whole entry): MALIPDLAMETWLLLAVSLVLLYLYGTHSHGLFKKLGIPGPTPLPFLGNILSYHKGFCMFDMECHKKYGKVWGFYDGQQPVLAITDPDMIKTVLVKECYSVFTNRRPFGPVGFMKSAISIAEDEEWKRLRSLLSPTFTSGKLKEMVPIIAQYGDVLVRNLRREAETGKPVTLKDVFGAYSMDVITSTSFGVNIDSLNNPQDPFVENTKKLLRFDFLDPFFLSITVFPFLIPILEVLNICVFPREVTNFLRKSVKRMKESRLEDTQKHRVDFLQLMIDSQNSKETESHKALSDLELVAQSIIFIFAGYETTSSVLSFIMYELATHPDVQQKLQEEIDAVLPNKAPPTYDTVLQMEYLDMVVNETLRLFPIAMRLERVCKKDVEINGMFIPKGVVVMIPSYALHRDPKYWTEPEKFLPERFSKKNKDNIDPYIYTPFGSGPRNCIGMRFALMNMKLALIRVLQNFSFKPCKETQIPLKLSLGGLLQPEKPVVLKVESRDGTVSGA
CYP3A7, sequence (P24462 whole entry, canonical isoform): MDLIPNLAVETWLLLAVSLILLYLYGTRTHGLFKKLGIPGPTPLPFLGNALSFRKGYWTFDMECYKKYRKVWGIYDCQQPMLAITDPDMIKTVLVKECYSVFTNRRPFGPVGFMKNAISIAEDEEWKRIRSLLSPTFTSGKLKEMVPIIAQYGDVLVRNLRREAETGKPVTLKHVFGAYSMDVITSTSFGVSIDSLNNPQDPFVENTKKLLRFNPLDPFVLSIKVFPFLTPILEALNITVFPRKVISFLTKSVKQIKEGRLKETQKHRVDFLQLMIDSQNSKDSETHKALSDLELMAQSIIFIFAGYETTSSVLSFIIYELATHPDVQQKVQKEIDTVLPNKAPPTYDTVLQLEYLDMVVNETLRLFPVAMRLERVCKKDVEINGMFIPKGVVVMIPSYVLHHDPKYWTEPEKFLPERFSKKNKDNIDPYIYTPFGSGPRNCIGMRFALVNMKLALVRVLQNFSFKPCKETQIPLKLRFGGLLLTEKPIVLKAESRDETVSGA
CYP2C9, sequence (P11712 whole entry): as the sequence (P11712 whole entry) above
Protocol for CYP3A7: as §4, §5, §6

Regarding `CC(=O)C(O)C(c1ccccc1)c1c(O)c2ccccc2oc1=O` (stereo not drawn) [10-OH-WAR, 10-hydroxywarfarin], the half-maximal inhibitory concentration (IC50) on CYP2C9 was found to be 1.6 µM; at CYP2C9*1 [5], 2 µM. The results for the Ki (in [1]; at CYP2C9*1 [2]) were 2.2 µM and 0.94 µM, respectively. Besides, the Mechanism of inhibition entry (in [1]; at CYP2C9*1 [2]) was “Competitive” each time. In data set [1] (human liver microsomes), the “Ki, fold lower than the microsomal Km for S-warfarin” value is on record as 2.4 fold. Moreover, the “Ki, fold lower than the Km for S-warfarin” value at CYP2C9*1 [2] (recombinant CYP2C9) is reported as “approximately 2.5 fold”. Also, the “detection in urine specimens” value in data set [3] (any of the three specimens) is reported as “not detected”. Moreover, in data set [4], the “mean unbound concentration in human plasma (estimated)” value is recorded as 5.8 ng/mL.
For `CC(=O)C[C@@H](c1ccccc1)c1c(O)c2ccccc2oc1=O` [S-warfarin, (S) warfarin, reference compound], the Michaelis-Menten constant (Km) came out at 27 µM on CYP3A4 [6] (4′-hydroxywarfarin formation), 26 µM on CYP3A4 [6] (10-hydroxywarfarin formation), 2280 µM on CYP3A7 (4′-hydroxywarfarin formation) and 81 µM at CYP3A7 (10-hydroxywarfarin formation). The Vmax on CYP3A4 [6] (4′-hydroxywarfarin formation) is 64 pmol product/min/nmol P450; on CYP3A4 [6] (setting [8]), 76 pmol product/min/nmol P450; at CYP3A7 (4′-hydroxywarfarin formation), 321 pmol product/min/nmol P450; at CYP3A7 (setting [8]), 22 pmol product/min/nmol P450. Further, in [4], the “mean unbound concentration in human plasma (estimated)” value was 2.7 ng/mL.
Regarding `CC(=O)C[C@@H](c1ccccc1)c1c(O)c2cccc(O)c2oc1=O` [(S)-8-OH-WAR, (S) 8-hydroxywarfarin], in data set [3], the “share of (S)-WAR P450 metabolites measured” value is 4-20%.
As to `CC(=O)CC(c1ccccc1)c1c(O)c2cc(O)ccc2oc1=O` (stereo not drawn) [6-OH-WAR, 6-hydroxywarfarin], the 50% inhibitory concentration (IC50) at CYP2C9 was 47 µM; on CYP3A4 [7], more than 500 µM; on CYP2C9*1 [5], 44.3 µM; at CYP1A2, 1400 µM. In addition, the Michaelis-Menten constant (Km) on UGT1A10 is 399 ± 130 µM. Further, at UGT1A10, the Vmax turned out to be 3.1 ± 0.4 nmol/mg protein/min. Besides, the Ki is 167 µM in data set [1] and more than 170 µM on CYP2C9*1 [2]. For the same molecule, the Mechanism of inhibition entry in [1] is reported as “Competitive”; on CYP2C9*1 [2] (listed as 6-hydroxywarfarin) it was “no inhibition was observed”; on CYP2C9*1 [2] (listed as 6OHWAR), “None”. Moreover, the “Ki, fold higher than the marker Km” value in data set [1] (human liver microsomes) is “approximately 32 fold”. In addition, the “% R” value is reported as 65% in data set [3] (patient F84), 69% in [3] (patient F85) and 62% in data set [3] (patient F87). Moreover, the “% S (proportion in (S)-enantiomeric form)” value in data set [3] (patient F84) stood at 35%; in data set [3] (patient F85), 31%; in [3] (patient F87), 38%. Also, the “% conjugated (proportion glucuronidated)” value is reported as 35% in [3] (patient F84), 15% in data set [3] (patient F85) and 12% in data set [3] (patient F87). Moreover, the urinary concentration in [3] (patient F84) worked out at 560 nM; in data set [3] (patient F85), 1124 nM; in [3] (patient F87), 204 nM. Further, the “plasma protein binding affinity relative to warfarin” value in the data set with plasma proteins was “three- to four-fold lower affinity”.
In the case of `CC(=O)C[C@@H](c1ccccc1)c1c(O)c2ccc(O)cc2oc1=O` [(S)-7-OH-WAR, (S) 7-hydroxywarfarin], in data set [3], the “share of (S)-WAR P450 metabolites measured” value is 61-71%.
On to `CC(=O)CC(c1ccc(O)cc1)c1c(O)c2ccccc2oc1=O` (stereo not drawn) [4′-OH-WAR, 4′-hydroxywarfarin], for which the IC50 on CYP2C9 is 9.3 µM; on CYP3A4 [7], 39 µM; at CYP2C9*1 [5], 8.4 µM; on CYP1A2, more than 3000 µM. Also, the inhibition constant Ki in data set [1] was determined as 17 µM; at CYP2C9*1 [2] it was 17 µM; at CYP2C9*1 [2] (mixed inhibition), 133 µM. Besides, the Mechanism of inhibition result is “Competitive” in data set [1] and “Mixed” at CYP2C9*1 [2]. Besides, the “% R” value is recorded as 64% in [3] (patient F84), 25% in data set [3] (patient F85) and 30% in [3] (patient F87). The “% S (proportion in (S)-enantiomeric form)” value in [3] (patient F84) is listed as 56%; in [3] (patient F85), 75%; in data set [3] (patient F87), 70%. Moreover, the “% conjugated (proportion glucuronidated)” value in [3] (patient F84) stood at 47%. The urinary concentration turned out to be 140 nM in data set [3] (patient F84), 94 nM in [3] (patient F85) and 20 nM in data set [3] (patient F87). The “plasma protein binding affinity relative to warfarin” value in the data set on plasma proteins was “affinity comparable to warfarin”.
